Assay results: patent US20070078263A1, “BIARYL SUBSTITUTED HETEROCYCLE INHIBITORS OF LTA4H FOR TREATING INFLAMMATION” (deCODE Chemistry, Inc., priority 2005, published 2007)
pIC50: −log10 of the molar value. Structures can show the parent of a compound that is named as a salt. Where two headings read alike, the source gives them in different places.

What was measured:
primate model = settings: eight weeks of treatment; cited from earlier work
[1] = system: ionophore-induced LTB4 production; settings: oral administration; cited from earlier work
[2] = system: ionophore-induced LTB4 production; settings: oral administration; cited from earlier work; remark: listed apart in the source
human LTA4 hydrolase = target: T1, human LTA4 hydrolase (Homo sapiens, UniProt P09960); assay: In vitro assay testing inhibitory activity against purified recombinant human LTA4 hydrolase (LTB4 formed, LC-MS/MS); type: biochemical;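 note: 200 nM enzyme preincubated 10 min at room temperature with serial inhibitor dilutions in pH 8.0 Tris buffer with BSA and 10% DMSO, then 2 µM LTA4 added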
T1 construct: A human LTA4 hydrolase full-length cDNA clone (NM 000895) was purchased; His tag (6xHis of vector pDEST17); made in house; host or cells: Escherichia coli BL21-AI
T1 sequence (P09960 1-611): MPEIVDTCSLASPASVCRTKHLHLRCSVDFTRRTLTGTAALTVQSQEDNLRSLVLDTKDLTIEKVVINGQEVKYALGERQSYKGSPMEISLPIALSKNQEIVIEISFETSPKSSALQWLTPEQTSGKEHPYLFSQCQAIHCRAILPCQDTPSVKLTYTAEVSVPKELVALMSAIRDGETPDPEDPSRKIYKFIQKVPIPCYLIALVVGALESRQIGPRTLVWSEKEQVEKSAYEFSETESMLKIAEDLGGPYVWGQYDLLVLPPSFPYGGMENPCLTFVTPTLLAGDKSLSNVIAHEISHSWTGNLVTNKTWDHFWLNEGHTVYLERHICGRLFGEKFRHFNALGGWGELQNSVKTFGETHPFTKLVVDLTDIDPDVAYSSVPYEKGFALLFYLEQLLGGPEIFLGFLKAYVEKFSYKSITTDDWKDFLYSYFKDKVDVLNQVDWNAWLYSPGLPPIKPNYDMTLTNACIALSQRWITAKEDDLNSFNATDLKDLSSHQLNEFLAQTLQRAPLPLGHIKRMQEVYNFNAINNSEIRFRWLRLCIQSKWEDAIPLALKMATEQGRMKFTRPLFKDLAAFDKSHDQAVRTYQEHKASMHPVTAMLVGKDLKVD
From the text: (1) In vitro assay testing inhibitory activity against purified recombinant human LTA4 hydroase. […] The gene was amplified by polymerase chain reaction and transferred via pDONR201 into the bacterial expression vector pDEST17 by recombination (both plasmids from Invitrogen, Carlsbad, Calif.). The resulting construct was transformed into Escherichia coli BL21-AI (Invitrogen), and expression was induced by chemical induction with arabinose. The recombinant enzyme was purified by chromatography on an FPLC system (Amersham Biosciences, Uppsala, Sweden) using immobilized metal affinity chromatography (Ni-NTA Superflow, Qiagen, Hilden, Germany) and anion exchange chromatography (MonoQ HR 10/10, Amersham Biosciences).
The compounds of the invention were incubated in a series of dilutions with 200 nM of recombinant enzyme in assay buffer (100 mM Tris-HCl, 100 mM NaCl, 5 mg/ml fatty-acid free BSA, 10% DMSO, pH 8.0) for 10 min at room temperature to allow binding between LTA4 hydrolase and the inhibitors. LTA4 was prepared by alkaline hydrolysis of LTA4 methyl ester (Biomol, Plymouth Meeting, Pa., or Cayman Chemicals, Ann Arbor, Mich.). A solution of 10 μg of the ester was dried under a nitrogen stream and redissolved in 60 μl of a solution of 80% acetone and 20% 0.25 M NaOH. After incubation for 40 min at room temperature the resulting approximately 500 μM tock of LTA4 was kept at −80° C. for no more than a few days prior to use.
Immediately before the assay, LTA4 was diluted to a concentration of 10 μM in assay buffer (without DMSO) and added to the reaction mixture to a final concentration of 2 μM to initiate the enzyme reaction. […] The samples were then kept at 4° C. overnight to complete protein precipitation and centrifuged for 15 min at 1800 g.

human whole blood = assay: Ex vivo assay testing inhibitory activity in human whole blood after stimulation with calcium ionophore (LTB4 ELISA); type: cell-based; settings: Ionomycin 20 μM, read-out: hWBIC50;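 note: heparinized human blood preincubated 15 min at 37 °C with compound, then ionomycin-stimulated for 30 min, LTB4 in plasma supernatant quantified by ELISA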
Method: (2) Ex vivo assay testing inhibitory activity in human whole blood after stimulation with calcium ionophor.
Human blood was collected in heparin-containing Vacutainer tubes. […] Then 4 μl of a series of compound dilutions (in DMSO) were added, followed by a 15 min incubation at 37° C. with gentle shaking. After that, blood samples were stimulated by adding Ionomycin (Calbiochem) to a final concentration of 20 μM. After another incubation at 37° C. for 30 min, samples were centrifuged for 5 min at 1800 g and 4° C. Supernatants were taken and LTB4 concentrations were determined using a commercially available enzyme-linked immunosobentassay (R&D Systems, Minneapolis, Minn.) according to the manufacturer's instructions.

[3] = recombinant human LTA4 hydrolase 200 nM, LTA4 2 μM, read-out: AvgIC50

Which results are given for CN(CCCOc1ccc(Cc2ccccc2)cc1)CCC(=O)O.Cl [SC57461]?
colitis symptoms in a primate model (primate model): significantly improved colitis symptoms; inhibition of ionophore-induced LTB4 production in mouse blood ex vivo [1]: inhibition of ionophore-induced LTB4 production; inhibition of ionophore-induced LTB4 production in rat peritoneum in vivo [2]: inhibition of ionophore-induced LTB4 production

With Brc1ccc(Cc2ccc(OC[C@H]3CCCN3)cc2)cc1 [Example 105, (R)-2-[4-(4-Bromo-benzyl)-phenoxymethyl]-pyrrolidine hydrogen chloride salt] as the molecule, how does the pIC50 (human LTA4 hydrolase; [3]) read?
The pIC50 was > 5.30.

And the pIC50 (human whole blood)?
Its pIC50 is > 5.30.

With Fc1ccc(Oc2ccc(OC[C@H]3CCCN3)cc2)cc1 [Example 49, (R)-2-[4-(4-Fluoro-phenoxy)-phenoxymethyl]-pyrrolidine] as the molecule, how does the pIC50 (human LTA4 hydrolase; [3]) read?
The pIC50 was > 5.30.

And the pIC50 (human whole blood)?
Its pIC50 is > 5.30.

With COC(=O)CCCN1CCCC[C@H]1COc1ccc(Oc2ccc(Cl)cc2)cc1 [Example 60, 4-{(S)-2-[4-(4-Chloro-phenoxy)-phenoxymethyl]-piperidin-1-yl}-butyric acid methyl ester] as the molecule, how does the pIC50 (human LTA4 hydrolase; [3]) read?
The pIC50 was > 5.30.

And the pIC50 (human whole blood)?
The pIC50 was > 5.30.

With O=C(O)CCCN1CCC[C@@H]1COc1ccc(Cc2ccc(-c3ccsc3)cc2)cc1 [Example 112, 4-{(R)-2-[4-(4-Thiophen-3-yl-benzyl)-phenoxymethyl]-pyrrolidin-1-yl}-butyric acid hydrogen chloride salt] as the molecule, how does the pIC50 (human LTA4 hydrolase; [3]) read?
Its pIC50 is > 5.30.

What about the pIC50 (human whole blood) of the same molecule?
The pIC50 was > 5.30.

With O=C(O)CCC[N+]1([O-])CCC[C@H]1COc1ccc(Oc2ccc(Cl)cc2)cc1 (stereo partly drawn) [Example 70, 4-{(S)-2-[4-(4-Chloro-phenoxy)-phenoxymethyl]-1-hydroxy-pyrrolidin-1-yl}-butyric acid] as the molecule, how does the pIC50 (human LTA4 hydrolase; [3]) read?
Its pIC50 is > 5.30.

And the pIC50 (human whole blood)?
The pIC50 was 4.70 to 5.30.

With c1ccc(Cc2ccc(OC[C@H]3CCCN3Cc3cccnc3)cc2)cc1 [Example 5, 3-[(R)-2-(4-benzyl-phenoxymethyl)-pyrrolidin-1-ylmethyl]-pyridine] as the molecule, how does the pIC50 (human LTA4 hydrolase; [3]) read?
The pIC50 was > 5.30.

What about the pIC50 (human whole blood) of the same molecule?
The pIC50 was > 5.30.

With c1ccc(-c2ccc(Oc3ccc(OC[C@H]4CCCCN4)cc3)cc2)cc1 [Example 54, (R)-2-[4-(Biphenyl-4-yloxy)-phenoxymethyl]-piperidine hydrochloride] as the molecule, how does the pIC50 (human LTA4 hydrolase) read?
Its pIC50 is > 5.30.

What about the pIC50 (human whole blood) of the same molecule?
The pIC50 was > 5.30.

With c1csc(-c2ccc(Cc3ccc(OC[C@H]4CCCN4)cc3)cc2)c1 [Example 107, (R)-2-[4-(2-thiophen-benzyl)-phenoxymethyl]-pyrrolidine hydrogen chloride salt] as the molecule, how does the pIC50 (human LTA4 hydrolase; [3]) read?
The pIC50 was > 5.30.

What about the pIC50 (human whole blood) of the same molecule?
Its pIC50 is > 5.30.

With c1ccc(Oc2ccc(OCC3CCCCN3)cc2)cc1 (racemic) [Example 74, (+/−)-2-[(4-phenoxyphenoxy)methyl]-piperidine hydrochloride] as the molecule, how does the pIC50 (human LTA4 hydrolase; [3]) read?
Its pIC50 is > 5.30.

And the pIC50 (human whole blood)?
Its pIC50 is > 5.30.

What does the source list for O=C(O)CCCN1CCC[C@H]1COc1ccc(Cc2ccc(Cl)cc2)cc1 [Example 21, 4-{(S)-2-[4-(4-Chloro-benzyl)-phenoxymethyl]-pyrrolidin-1-yl}-butyric acid hydrochloride]?
pIC50 (human LTA4 hydrolase; [3]): > 5.30; pIC50 (human whole blood): > 5.30

With O=C(O)CCCN1CCC[C@@H]1COc1ccc(Oc2ccc(-c3cnco3)cc2)cc1 [Example 88, 4-{(R)-2-[4-(4-Oxazol-5-yl-phenoxy)-phenoxymethyl]-pyrrolidin-1-yl}-butyric acid] as the molecule, how does the pIC50 (human LTA4 hydrolase; [3]) read?
Its pIC50 is > 5.30.

What about the pIC50 (human whole blood) of the same molecule?
The pIC50 was > 5.30.

With c1ccc(Oc2ccc(NC[C@H]3CCCN3)cc2)cc1 [Example 42, (4-Phenoxy-phenyl)-(R)-1-pyrrolidin-2-ylmethyl-amine] as the molecule, how does the pIC50 (human LTA4 hydrolase; [3]) read?
The pIC50 was > 5.30.

And the pIC50 (human whole blood)?
The pIC50 was > 5.30.

What does the source list for c1cc(-c2ccc(Cc3ccc(OC[C@H]4CCCN4)cc3)cc2)co1 [Example 108, (R)-2-[4-(3-Furan-benzyl)-phenoxymethyl]-pyrrolidine hydrogen chloride salt]?
pIC50 (human LTA4 hydrolase; [3]): > 5.30; pIC50 (human whole blood): > 5.30

With FC(F)(F)c1ccc(Oc2ccc(OC[C@H]3CCCCN3)cc2)cc1 [Example 55, (R)-2-[4-(4-Trifluoromethyl-phenoxy)-phenoxymethyl]-piperidine hydrochloride] as the molecule, how does the pIC50 (human LTA4 hydrolase; [3]) read?
Its pIC50 is > 5.30.

What about the pIC50 (human whole blood) of the same molecule?
Its pIC50 is > 5.30.

With c1ccc(Cc2ccc(OC[C@H]3CCCN3Cc3ccccn3)cc2)cc1 [Example 4, 2-[(R)-2-(4-benzyl-phenoxymethyl)-pyrrolidin-1-ylmethyl]-pyridine] as the molecule, how does the pIC50 (human LTA4 hydrolase; [3]) read?
The pIC50 was > 5.30.

And the pIC50 (human whole blood)?
Its pIC50 is > 5.30.

With c1ccc(Oc2ccc(OC[C@@H]3CCCCN3)cc2)cc1 [Example 52, (S)-2-(4-Phenoxy-phenoxymethyl)-piperidine hydrochloride] as the molecule, how does the pIC50 (human LTA4 hydrolase; [3]) read?
Its pIC50 is > 5.30.

What about the pIC50 (human whole blood) of the same molecule?
Its pIC50 is > 5.30.

What does the source list for Clc1ccc(-c2ccc(Cc3ccc(OC[C@H]4CCCN4)cc3)cc2)s1 [Example 111, (R)-2-{4-[4-(5-chloro-thiophen-2-yl)-benzyl]-phenoxymethyl}-pyrrolidine hydrogen chloroide salt]?
pIC50 (human LTA4 hydrolase; [3]): > 5.30; pIC50 (human whole blood): > 5.30

Which results are given for c1coc(-c2ccc(Cc3ccc(OC[C@H]4CCCN4)cc3)cc2)c1 [Example 109, (R)-2-[4-(2-Furan-benzyl)-phenoxymethyl]-pyrrolidine hydrogen chloride salt]?
pIC50 (human LTA4 hydrolase; [3]): > 5.30; pIC50 (human whole blood): > 5.30

With c1cncc(-c2ccc(Oc3ccc(OC[C@H]4CCCN4)cc3)cc2)c1 [Example 87, 3-{4-[4-((R)-1-Pyrrolidin-2-ylmethoxy)-phenoxy]-phenyl}-pyridine hydrochloride salt] as the molecule, how does the pIC50 (human LTA4 hydrolase; [3]) read?
Its pIC50 is > 5.30.

And the pIC50 (human whole blood)?
Its pIC50 is > 5.30.

With c1ccc(-c2ccc(Cc3ccc(OC[C@H]4CCCN4)cc3)s2)cc1 [Example 159, (R)-2-[4-(5-Phenyl-thiophen-2-ylmethyl)-phenoxymethyl]-pyrrolidine hydrochloride salt] as the molecule, how does the pIC50 (human LTA4 hydrolase; [3]) read?
The pIC50 was > 5.30.

And the pIC50 (human whole blood)?
The pIC50 was > 5.30.

What does the source list for Clc1ccc(Oc2ccc(OC[C@@H]3CCCCN3)cc2)cc1 [Example 56, (S)-2-[4-(4-Chloro-phenoxy)-phenoxymethyl]-piperidine hydrochloride]?
pIC50 (human LTA4 hydrolase; [3]): > 5.30; pIC50 (human whole blood): > 5.30

What does the source list for c1csc(-c2ccc(Oc3ccc(OC[C@H]4CCCN4)cc3)cc2)n1 [Example 146, 2-{4-[4-((R)-1-Pyrrolidin-2-ylmethoxy)-phenoxy]-phenyl}-thiazole hydrochloride salt]?
pIC50 (human LTA4 hydrolase; [3]): > 5.30; pIC50 (human whole blood): > 5.30

With c1ccc(Cc2ccc(OCC3CCCCN3)cc2)cc1 (racemic) [Example 73, (+/−)-2-[(4-Benzylphenoxy)methyl]-piperidine hydrochloride] as the molecule, how does the pIC50 (human LTA4 hydrolase; [3]) read?
Its pIC50 is > 5.30.

And the pIC50 (human whole blood)?
Its pIC50 is > 5.30.

What does the source list for c1ccc(COc2ccc(OC[C@H]3CCCN3)cc2)cc1 [Example 90, (R)-2-(4-Benzyloxy-phenoxymethyl)-pyrrolidine hydrogen chloride salt]?
pIC50 (human LTA4 hydrolase; [3]): > 5.30; pIC50 (human whole blood): > 5.30

With c1ccc(Cc2ccc(OC[C@H]3CCCCN3)cc2)cc1 [Example 51, (R)-2-(4-Benzyl-phenoxymethyl)-piperidine hydrochloride] as the molecule, how does the pIC50 (human LTA4 hydrolase; [3]) read?
Its pIC50 is > 5.30.

What about the pIC50 (human whole blood) of the same molecule?
Its pIC50 is > 5.30.

What does the source list for O=C(O)CCCN1CCCC[C@H]1COc1ccc(Oc2ccc(Cl)cc2)cc1 [Example 61, 4-{(S)-2-[4-(4-Chloro-phenoxy)-phenoxymethyl]-piperidin-1-yl}-butyric acid hydrochloride]?
pIC50 (human LTA4 hydrolase): > 5.30; pIC50 (human whole blood): > 5.30

With c1ccc2sc(Oc3ccc(OC[C@H]4CCCN4)cc3)nc2c1 [Example 100, (R)-2-[4-(Benzothiazol-2-yloxy)-phenoxymethyl]-pyrrolidine-Hydrogen chloride salt] as the molecule, how does the pIC50 (human LTA4 hydrolase; [3]) read?
Its pIC50 is > 5.30.

And the pIC50 (human whole blood)?
Its pIC50 is > 5.30.

With c1ccc(-c2ccc(Oc3ccc(OC[C@@H]4CCCCN4)cc3)cc2)cc1 [Example 53, (S)-2-[4-(Biphenyl-4-yloxy)-phenoxymethyl]-piperidine hydrochloride] as the molecule, how does the pIC50 (human LTA4 hydrolase) read?
Its pIC50 is > 5.30.

What about the pIC50 (human whole blood) of the same molecule?
Its pIC50 is > 5.30.

With O=C(O)CCCN1CCC[C@H]1COc1ccc(Cc2ccccc2)cc1 [Example 3, 4-[(S)-2-(4-benzyl-phenoxymethyl)-pyrrolidin-1-yl]-butyric acid] as the molecule, how does the pIC50 (human LTA4 hydrolase; [3]) read?
The pIC50 was > 5.30.

And the pIC50 (human whole blood)?
The pIC50 was > 5.30.

What does the source list for Fc1ccc(Oc2ccc(OC[C@@H]3CCCCN3)cc2)cc1 [Example 57, (S)-2-[4-(4-Fluoro-phenoxy)-phenoxymethyl]-piperidine hydrochloride]?
pIC50 (human LTA4 hydrolase; [3]): > 5.30; pIC50 (human whole blood): > 5.30

With c1ccc(CCc2ccc(OC[C@H]3CCCN3)cc2)cc1 [Example 135, (R)-2-(4-Phenethyl-phenoxymethyl)-pyrrolidine] as the molecule, how does the pIC50 (human LTA4 hydrolase; [3]) read?
The pIC50 was 4.70 to 5.30.

And the pIC50 (human whole blood)?
The pIC50 was 4.70 to 5.30.

With CS(=O)(=O)NCCCN1CCC[C@H]1COc1ccc(Oc2ccc(Cl)cc2)cc1 [Example 39, N-(3-{(S)-2-[4-(4-Chloro-phenoxy)-phenoxymethyl]-pyrrolidin-1-yl}-propyl)-methanesulfonamide HCl] as the molecule, how does the pIC50 (human LTA4 hydrolase; [3]) read?
Its pIC50 is > 5.30.

And the pIC50 (human whole blood)?
The pIC50 was > 5.30.

With c1cc(-c2ccc(Oc3ccc(OC[C@H]4CCCN4)cc3)cc2)cs1 [Example 130, (R)-2-[4-(4-Thiophen-3-yl-phenoxy)-phenoxymethyl]-pyrrolidine-1-hydrogen chloride salt] as the molecule, how does the pIC50 (human LTA4 hydrolase; [3]) read?
The pIC50 was 4.70 to 5.30.

What about the pIC50 (human whole blood) of the same molecule?
The pIC50 was > 5.30.

With Cc1ccc(-c2ccc(Cc3ccc(OC[C@H]4CCCN4)cc3)cc2)s1 [Example 110, (R)-2-{4-[4-(5-methyl-thiophen-2-yl)-benzyl]-phenoxymethyl}-pyrrolidine hydrogen chloroide salt] as the molecule, how does the pIC50 (human LTA4 hydrolase; [3]) read?
The pIC50 was > 5.30.

What about the pIC50 (human whole blood) of the same molecule?
The pIC50 was 4.70 to 5.30.
